Like-named read-outs stand apart in the source and are kept apart here.
Assays:
[1] = system: wild-type HIV-1IIIB strain; assay: Antiviral activity, MT4 LTR-EGFP cellular assay; format: cell-based; set-up: key to Antiviral activity IIIB (pEC50): pEC50 = -log10(EC50); details: for EC50: read-out: Antiviral activity IIIB (pEC50) (converted)
Protocol: (§1) Assay 1 &2: Antiviral Activity/Toxicity
The compounds of the present invention were tested for antiviral activity in a cellular assay, which was performed according to the following procedure.
The human T-cell line MT4 is engineered with Green Fluorescent Protein (GFP) and an HIV-specific promoter, HIV-1 long terminal repeat (LTR). This cell line is designated MT4 LTR-EGFP, and can be used for the in vitro evaluation of anti-HIV activity of investigational compounds. In HIV-1 infected cells, the Tat protein is produced which upregulates the LTR promotor and finally leads to stimulation of the GFP reporter production, allowing measuring ongoing HIV-infection fluorometrically.
(§2) The ratio of CC50 to EC50 is defined as the selectivity index (SI) and is an indication of the selectivity of the anti-HIV activity of the inhibitor. The ultimate monitoring of HIV-1 infection and cytotoxicity is done using a scanning microscope. Image analysis allows very sensitive detection of viral infection. Measurements are done before cell necrosis, which usually takes place about five days after infection, in particular measurements are performed three days after infection.
(§3) A pEC50 value corresponds to −log10(EC50). A pCC50 value corresponds to −log10(CC50).

MT4 CMV-EGFP cells = assay: Toxicity, mock-infected MT4 CMV-EGFP cells; format: cell-based, human
Description: as §1
(§4) Analogously, MT4 cells are engineered with GFP and the constitutional cytomegalovirus (CMV) promotor. […] Cytotoxic investigational compounds reduce GFP levels of mock-infected MT4 CMV-EGFP cells.
as §2, §3

[2] = Metabolic stability of test compounds (HLM15'); format: in vitro ADME, human; details: for recovery at 15 min, 5 μM: read-out: Metabolic stability (HLM, % recovery after 15')
Description: Human liver tissue is rinsed in ice-cold 0.1 M Tris-HCl (pH 7.4) buffer to wash excess blood. Tissue is then blotted dry, weighed and chopped coarsely using surgical scissors. The tissue pieces are homogenized in 3 volumes of ice-cold 0.1 M phosphate buffer (pH 7.4) using either a Potter-S (Braun, Italy) equipped with a Teflon pestle or a Sorvall Omni-Mix homogenizer, for 7×10 sec. In both cases, the vessel is kept in/on ice during the homogenization process. Tissue homogenates are centrifuged at 9000×g for 20 min at 4° C. using a Sorvall centrifuge or Beckman Ultracentrifuge. The resulting supernatant can be stored at −80° C. and is designated ‘S9’. The S9 fraction is centrifuged at 100,000×g for 60 min at 4° C. using a Beckman ultracentrifuge. The resulting supernatant is carefully aspirated, aliquoted and designated ‘cytosol’. The pellet is re-suspended in 0.1 M phosphate buffer (pH 7.4) in a final volume of 1 ml per 0.5 g original tissue weight and designated ‘microsomes’. All sub-cellular fractions are aliquoted, immediately frozen in liquid nitrogen and stored at −80° C. until use.
Heat-inactivated (10 min at 95° C.) ‘S9’ or microsomes were used for blank experiments. […] The reaction was incubated for 0 or 15 min. Next, the reaction was stopped by addition of 2 volumes of DMSO (or acetonitrile). Samples were centrifuged (10 min, 900×g) and analyzed by LC-MS.

CYP2C9 = CYP2C9 (Homo sapiens, UniProt P11712); assay: in vitro
Sequence of CYP2C9 (P11712 whole entry): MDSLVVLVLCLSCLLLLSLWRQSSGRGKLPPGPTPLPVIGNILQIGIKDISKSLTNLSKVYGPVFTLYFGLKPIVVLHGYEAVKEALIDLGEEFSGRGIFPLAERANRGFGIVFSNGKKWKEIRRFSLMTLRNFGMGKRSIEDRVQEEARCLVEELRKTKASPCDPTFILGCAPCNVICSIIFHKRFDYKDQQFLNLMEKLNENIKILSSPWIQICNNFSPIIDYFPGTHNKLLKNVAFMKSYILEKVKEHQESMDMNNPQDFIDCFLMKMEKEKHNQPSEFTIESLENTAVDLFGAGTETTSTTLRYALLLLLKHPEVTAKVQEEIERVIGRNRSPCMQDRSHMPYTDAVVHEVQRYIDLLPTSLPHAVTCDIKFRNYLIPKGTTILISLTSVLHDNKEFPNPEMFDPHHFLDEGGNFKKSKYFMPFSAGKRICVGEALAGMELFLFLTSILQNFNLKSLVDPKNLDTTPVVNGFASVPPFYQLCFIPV
Description: Assay 4: CYP450 Inhibition

[3] = Toxicity, mock-infected MT4 CMV-EGFP cells; format: cell-based, human; details: human
Description: as §1, §4, §2, §3

CYP2D6 = CYP2D6 (Homo sapiens, UniProt P10635); assay: in vitro; details: pH 7.4
Sequence of CYP2D6 (P10635 whole entry): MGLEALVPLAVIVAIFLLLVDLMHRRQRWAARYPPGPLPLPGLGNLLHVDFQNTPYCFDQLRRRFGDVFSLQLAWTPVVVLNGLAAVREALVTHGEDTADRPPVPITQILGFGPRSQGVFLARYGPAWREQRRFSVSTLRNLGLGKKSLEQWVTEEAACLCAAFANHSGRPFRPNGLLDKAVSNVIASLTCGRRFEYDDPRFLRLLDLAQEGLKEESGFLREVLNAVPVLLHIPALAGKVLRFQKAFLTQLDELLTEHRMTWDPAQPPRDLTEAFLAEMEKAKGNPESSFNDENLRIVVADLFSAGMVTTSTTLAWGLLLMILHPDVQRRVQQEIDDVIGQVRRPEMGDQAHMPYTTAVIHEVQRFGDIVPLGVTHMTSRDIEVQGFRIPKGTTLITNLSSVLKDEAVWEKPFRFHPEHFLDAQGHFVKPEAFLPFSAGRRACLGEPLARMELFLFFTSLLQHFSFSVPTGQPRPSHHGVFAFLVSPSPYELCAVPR
Protocol: (§5) Inhibition of the metabolism of test compounds by different CYP P450 isoenzymes was determined using E. coli expressed proteins (3A4, 2C9, 2D6, 1A2, and 2C19) that convert their specific substrates into a fluorescent molecule (Table 6). This fluorescent molecule was measured using a fluorescent plate reader (Victor2 (Wallac) or Fluoroskan (Labsystems)). […] CYP P450 enzymes were prepared in house or commercially bought and stored at −80° C.
(§6) The assay was performed in black 96 well Costar plates. Test compounds were added to a CYP P450 enzyme solution in the presence of an NADPH generating system. After 5 min of preincubation at 37° C., the freshly prepared, phosphate buffered (pH 7.4) substrate solution was added. Known CYP P450 inhibitors were used as positive controls, negative controls were run without CYP P450 enzyme. […] Reaction mixtures were incubated at 37° C. for 30 min (CYP3A4-BFC), 30 min (CYP3A4-BQ), 10 min (CYP3A4-DBF), 15 min (CYP1A2-CEC), 30 min (CYP2C9-MFC, CYP2C19-CEC), or 45 min (CYP2D6-AMMC), respectively. Then, the reaction was stopped by the addition of 200 μl acetonitrile, and the fluorescent signal was detected.
(§7) Calculation of CYP P450 isoenzyme inhibition (% inh.):
(§8) % activity=(100/(average positive control−average negative control))×(average sample−average negative control)

CYP2C19 = CYP2C19 (Homo sapiens, UniProt P33261); assay: in vitro; details: E. coli expressed CYP2C19, pH 7.4, probe CEC 25 μM
Sequence of CYP2C19 (P33261 whole entry): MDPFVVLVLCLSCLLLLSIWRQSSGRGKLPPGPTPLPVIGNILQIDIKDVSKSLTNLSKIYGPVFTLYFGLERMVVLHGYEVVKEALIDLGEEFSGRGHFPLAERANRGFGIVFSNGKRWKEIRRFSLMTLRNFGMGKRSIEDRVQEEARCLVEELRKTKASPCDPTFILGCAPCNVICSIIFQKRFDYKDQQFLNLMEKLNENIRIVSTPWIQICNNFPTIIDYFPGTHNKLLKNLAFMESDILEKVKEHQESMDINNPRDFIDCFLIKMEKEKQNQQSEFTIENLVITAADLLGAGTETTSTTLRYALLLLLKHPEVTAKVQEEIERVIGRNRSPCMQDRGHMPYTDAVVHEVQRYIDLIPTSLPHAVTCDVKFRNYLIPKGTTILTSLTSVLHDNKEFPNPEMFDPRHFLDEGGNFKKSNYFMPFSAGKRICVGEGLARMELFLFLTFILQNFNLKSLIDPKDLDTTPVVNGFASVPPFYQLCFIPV
Protocol: as §5, §6, §7, §8

[4] = wild-type HIV-1 IIIB, MT4 LTR-EGFP cells, three days after infection
[5] = human liver microsomes 1 mg/ml, 5 μM test compound, 15 min
[6] = Human immunodeficiency virus 1, 72 h, wild-type HIV-1 IIIB, MT4 LTR-EGFP cells, three days after infection
[7] = mock-infected MT4 CMV-EGFP cells, read-out: Toxicity MT4 (pCC50) (converted)
[8] = pH 7.4, human liver microsomes 1 mg/ml, 5 μM test compound, 15 min

Row | SMILES | Antiviral activity IIIB (pEC50) [1, 4] | Metabolic stability (HLM, % recovery after 15') [2, 5] | Cyp450 inhibition: CDNA-CYP2C9-MFC (% inhibition) (CYP2C9) | Toxicity MT4 (pCC50) (MT4 CMV-EGFP cells) | also measured
1 | CC(C)CN(C[C@@H](O)[C@H](Cc1cccnc1)NC(=O)OCc1cncs1)C(=O)c1ccc2ncsc2c1 [Compound C55, Thiazol-5-ylmethyl (2S,3R)-3-hydroxy-4-(N-isobutylbenzo[d]thiazole-6-carboxamido)-1-(pyridin-3-yl)butan-2-ylcarbamate] |  |  |  |  | EC50 [1, 6]: > 100 µM; CC50 at 3 days [3, 7]: > 100 µM
2 | CC(C)CN(C[C@@H](O)[C@H](Cc1ccccc1)NC(=O)OCc1cncs1)C(=O)c1ccc2nc(N3CCOCC3)oc2c1 [Compound C5] | <4.00 | 67% | 95% | =4.06 | 
3 | CCN(C)c1nc2ccc(C(=O)N(CC(C)C)C[C@H](O)[C@H](Cc3ccccc3)NC(=O)OCc3cncs3)cc2o1 [Compound C52, Thiazol-5-ylmethyl (2S,3S)-4-(2-(ethyl(methyl)amino)-N-isobutylbenzo[d]-oxazole-6-carboxamido)-3-hydroxy-1-phenylbutan-2-ylcarbamate] |  |  |  |  | EC50 [1, 6]: 44.7 µM; CC50 [3]: 44.7 µM; recovery at 15 min, 5 μM [2, 8]: 63%
4 | CC(C)CN(C[C@H](O)[C@H](Cc1ccccc1)NC(=O)OCc1cncs1)C(=O)c1ccc2nc(N3CCCC3)oc2c1 [Compound C51, Thiazol-5-ylmethyl (2S,3S)-3-hydroxy-4-(N-isobutyl-2-(pyrrolidin-1-yl)-benzo[d]oxazole-6-carboxamido)-1-phenylbutan-2-ylcarbamate] |  |  |  |  | EC50 [1, 6]: 44.7 µM; CC50 at 3 days [3, 7]: 40.7 µM; recovery at 15 min, 5 μM [2, 8]: 66%; inhibition at 45 min, 10 μM (CYP2D6): 82%; inhibition at 30 min, 10 μM (CYP2C19): 94%
5 | CCN(C)c1nc2ccc(C(=O)N(CC(C)C)C[C@@H](O)[C@H](Cc3ccccc3)NC(=O)OCc3ccc4c(c3)OCO4)cc2o1 [Compound C36] | =4.79 | 62% | 84% | =4.57 | 
6 | C#CCN(C)c1nc2ccc(C(=O)N(CC(C)C)C[C@@H](O)[C@H](Cc3ccccc3)NC(=O)OCc3cncs3)cc2o1 [Compound C50] | =4.32 | 72% |  |  | Toxicity MT4 (pCC50) (MT4 CMV-EGFP cells; mock-infected MT4 CMV-EGFP cells): =4.32
7 | CCN(C[C@@H](O)[C@H](Cc1ccccc1)NC(=O)OCc1cncs1)C(=O)c1ccc2nc(N3CCCC3)oc2c1 [Compound C30, Thiazol-5-ylmethyl (2S,3R)-4-(N-ethyl-2-(pyrrolidin-1-yl)benzo[d]oxazole-6-carboxamido)-3-hydroxy-1-phenylbutan-2-ylcarbamate] |  |  |  |  | EC50 ([1]; Human immunodeficiency virus 1, IIIB, 72 h): 69.2 µM; CC50 [3]: 72.4 µM; recovery ([2]; human, pH 7.4): 80%
8 | CC(C)CN(C[C@@H](O)[C@H](Cc1ccccc1)NC(=O)OCc1cncs1)C(=O)c1ccc2nc(N)oc2c1 [Compound C22] |  |  |  | <4.00 | Antiviral activity IIIB (pEC50) [1]: <4.00; Metabolic stability (HLM, % recovery after 15') [2]: 72%
9 | CC(C)CN(C[C@@H](O)[C@H](Cc1ccccc1)NC(=O)OCc1cncs1)C(=O)c1ccc2nc(N(C)CCN(C)C)oc2c1 [Compound C24] |  |  |  | <4.00 | Antiviral activity IIIB (pEC50) [1]: =4.20; Metabolic stability (HLM, % recovery after 15') [2]: 57%
10 | CCN(C)c1nc2ccc(C(=O)N(CC(C)C)C[C@@H](O)[C@H](Cc3cccnc3)NC(=O)OCc3cncs3)cc2o1 [Compound C54, Thiazol-5-ylmethyl (2S,3R)-4-(2-(ethyl(methyl)amino)-N-isobutylbenzo[d]-oxazole-6-carboxamido)-3-hydroxy-1-(pyridin-3-yl)butan-2-ylcarbamate] |  |  |  |  | EC50 [1, 6]: > 100 µM; CC50 at 3 days [3, 7]: > 100 µM
11 | CCN(C)c1nc2ccc(C(=O)N(CC(C)C)C[C@@H](O)[C@H](Cc3ccccc3)NC(=O)OCc3cncs3)cc2o1 [Compound C1, Thiazol-5-ylmethyl (2S,3R)-4-(2-(ethyl(methyl)amino)-N-isobutylbenzo[d]-oxazole-6-carboxamido)-3-hydroxy-1-phenylbutan-2-ylcarbamate] |  |  |  |  | EC50 [1, 6]: 70.8 µM; CC50 at 3 days [3]: > 81.3 µM; recovery at 15 min, 5 μM [2, 8]: 71%

More lines, main results first:

Row | Antiviral activity IIIB (pEC50) [1, 4] | Metabolic stability (HLM, % recovery after 15') [2, 5] | Cyp450 inhibition: CDNA-CYP2C9-MFC (% inhibition) (CYP2C9) | SMILES | Toxicity MT4 (pCC50) (MT4 CMV-EGFP cells) | also measured
12 | <4.00 | 60% | 93% | CC(C)CN(C[C@@H](O)[C@H](Cc1ccccc1)NC(=O)OCc1cncs1)C(=O)c1ccc2ncn(C(C)C)c2c1 [Compound C14] | <4.00 | 
13 | =4.32 | 65% | 91% | CCN(C)c1nc2ccc(C(=O)N(CC(C)C)C[C@@H](O)[C@H](Cc3ccccc3)NC(=O)OCc3cccnc3)cc2o1 [Compound C9] | =4.24 | 
14 | =4.22 | 59% | 28% | CC(C)CN(C[C@@H](O)[C@H](Cc1ccccc1)NC(=O)OCc1cncs1)C(=O)c1ccc2nc(NCCCN(C)C)oc2c1 [Compound C23] | <4.00 | 
15 | <4.00 | 57% | 29% | CCN(C)c1nc2ccc(C(=O)N(CCN(C)C)C[C@@H](O)[C@H](Cc3ccccc3)NC(=O)OCc3cncs3)cc2o1 [Compound C11] | <4.00 | 
16 | =4.32 | 67% | 97% | CCN(C)c1nc2ccc(C(=O)N(C[C@@H](O)[C@H](Cc3ccccc3)NC(=O)OCc3cncs3)CC(C)(C)C)cc2o1 [Compound C43] | =4.34 | 
17 | =4.06 | 92% | 90% | CC(C)CN(C[C@@H](O)[C@H](Cc1ccccc1)NC(=O)OCc1cncs1)C(=O)c1ccc2nc(NCCCn3ccnc3)oc2c1 [Compound C46] | <4.00 | 
18 | <4.00 | 64% | 53% | CCN(C)c1nc2ccc(C(=O)N(CCN3CCOCC3)C[C@@H](O)[C@H](Cc3ccccc3)NC(=O)OCc3cncs3)cc2o1 [Compound C18] | <4.00 | 
19 | <4.00 | 69% | 34% | CCN(C)c1nc2ccc(C(=O)N(CCN3CCCC3)C[C@@H](O)[C@H](Cc3ccccc3)NC(=O)OCc3cncs3)cc2o1 [Compound C12] | <4.00 | 

Reference: US8350048B2, “Amide compounds as boosters of antivirals” (Janssen R&D Ireland, priority 2007, dated 2013)
